Test results published in paper PMC5473336 (Journal of medicinal chemistry, 2016).
Entries after “also recorded” stand apart in the source; their conditions may differ.

Tests used:
RAD51 [1] = biological target: T1, RAD51 (Homo sapiens, UniProt Q06609); experiment: Gel-based D-loop assay; assay type: biochemical
T1 sequence (Q06609 1-339): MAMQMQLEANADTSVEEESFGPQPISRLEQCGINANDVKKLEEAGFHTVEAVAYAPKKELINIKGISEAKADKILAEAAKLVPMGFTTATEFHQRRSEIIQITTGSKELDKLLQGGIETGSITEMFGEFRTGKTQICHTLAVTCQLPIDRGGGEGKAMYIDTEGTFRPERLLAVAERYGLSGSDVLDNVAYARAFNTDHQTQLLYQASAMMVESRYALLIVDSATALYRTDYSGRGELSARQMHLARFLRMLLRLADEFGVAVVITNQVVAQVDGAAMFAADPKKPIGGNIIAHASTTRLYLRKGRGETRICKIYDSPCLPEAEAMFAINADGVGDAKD

RAD51 [2] = biological target: T1, RAD51; experiment: Fluorescence polarization-based RAD51-DNA binding assay; settings: for ssDNA binding IC50: Stim: compound is a stimulator
293-DR-GFP cells = experiment: DR-GFP assay of cellular HR activity; assay type: cell-based, human; settings: 24 h, relative to 1 and 8

Compound | D-loop inhibitory activity (in words) (RAD51 [1]) | influence on RAD51-ssDNA binding (in words) (RAD51 [2]) | ssDNA binding IC50 (RAD51 [2]) | inhibitory activity in cell-based HR assay (in words) (293-DR-GFP cells)
Nc1ccc(-c2nc3ccccc3n3cccc23)cc1 [Compound 9g, 4-(Pyrrolo[1,2-a]quinoxalin-4-yl)aniline] | allow for D-loop inhibition |  |  | 
c1ccc2c(-c3nc4ccccc4n4cccc34)cccc2c1 [Compound 11d, 4-(Naphthalen-1-yl)pyrrolo[1,2-a]quinoxaline] | weak | modest influence | Stim | 
CN(C)c1ccc(-c2nc3cc(F)ccc3n3cccc23)cc1 [Compound 12j, 4-(7-Fluoropyrrolo[1,2-a]quinoxalin-4-yl)-N,N-dimethylaniline] | nearly absent |  | Stim | 
CN(C)c1ccc(-c2nc3cc(O)ccc3n3cccc23)cc1 [Compound 12g, 4-(4-(Dimethylamino)phenyl)pyrrolo[1,2-a]quinoxalin-7-ol] |  | only weakly influenced | Stim | comparable or slightly less inhibitory activity
COc1ccc2c(c1)nc(-c1ccc(N(C)C)cc1)c1cccn12 [Compound 8, 4-(7-Methoxypyrrolo[1,2-a]quinoxalin-4-yl)-N,N-dimethylaniline] |  |  | Stim | 
COc1ccc2c(c1)nc(-c1ccc(O)cc1)c1cccn12 [Compound 12a, 4-(7-Methoxypyrrolo[1,2-a]quinoxalin-4-yl)phenol] |  | relatively strong ssDNA binding inhibition |  | 
C1=C(c2nc3ccccc3n3cccc23)CCCC1 [Compound 11c, 4-(Cyclohex-1-en-1-yl)pyrrolo[1,2-a]quinoxaline] | weak | modest influence | Stim | 
O=[N+]([O-])c1ccc(-c2nc3ccccc3n3cccc23)cc1 [Compound 9f, 4-(4-Nitrophenyl)pyrrolo[1,2-a]quinoxaline] | significantly decreased |  |  | 
CN(C)c1ccc(-c2nc3ccccc3n3cccc23)cc1 [Compound 9a, N,N-Dimethyl-4-(pyrrolo[1,2-a]quinoxalin-4-yl)aniline] | allow for D-loop inhibition | modest influence | Stim | 
FC(F)(F)Oc1ccc(-c2nc3ccccc3n3cccc23)cc1 [Compound 9e, 4-(4-(Trifluoromethoxy)phenyl)pyrrolo[1,2-a]quinoxaline] | significantly decreased |  | Stim | 
Oc1ccc(-c2nc3ccccc3n3cccc23)cc1 [Compound 9d, 4-(Pyrrolo[1,2-a]quinoxalin-4-yl)phenol] | significantly decreased |  |  | 
Oc1ccc2c(c1)nc(-c1cccnc1)c1cccn12 [Compound 13b, 4-(Pyridin-3-yl)pyrrolo[1,2-a]quinoxalin-7-ol] | slight improvement |  |  | 
Nc1ccc(-c2nc3cc(O)ccc3n3cccc23)cc1 [Compound 12f, 4-(4-Aminophenyl)pyrrolo[1,2-a]quinoxalin-7-ol] |  | modest effects |  | comparable or slightly less inhibitory activity
O=[N+]([O-])c1cccc(-c2nc3ccccc3n3cccc23)c1 [Compound 9b, 4-(3-Nitrophenyl)pyrrolo[1,2-a]quinoxaline] |  | modest influence |  | 
Nc1cccc(-c2nc3ccccc3n3cccc23)c1 [Compound 9c, 3-(Pyrrolo[1,2-a]quinoxalin-4-yl)aniline] | decreased |  |  | 
Nc1ccc(-c2nc3cc(OCCF)ccc3n3cccc23)cc1 [Compound 15b, 4-(7-(2-Fluoroethoxy)pyrrolo[1,2-a]quinoxalin-4-yl)aniline] |  | stimulators; also recorded: modest effects | Stim | 
c1cncc(-c2nc3ccccc3n3cccc23)c1 [Compound 11a, 4-(Pyridin-3-yl)pyrrolo[1,2-a]quinoxaline] | moderate |  |  | 
CN(C)c1ccc(-c2nc3cc(OC(C)(C)C(N)=O)ccc3n3cccc23)cc1 [Compound 16, 2-((4-(4-(Dimethylamino)phenyl)pyrrolo[1,2-a]quinoxalin-7-yl)-oxy)-2-methylpropanamide] |  | stimulators | Stim | 
CN(C)c1ccc(-c2nc3cc(F)c(F)cc3n3cccc23)cc1 [Compound 12m, 4-(7,8-Difluoropyrrolo[1,2-a]quinoxalin-4-yl)-N,N-dimethylaniline] | nearly absent |  | Stim | 
CCCOc1ccc2c(c1)nc(-c1ccc(N)cc1)c1cccn12 [Compound 15a, 4-(7-Propoxypyrrolo[1,2-a]quinoxalin-4-yl)aniline] |  | stimulators | Stim | 
COc1ccc2c(c1)nc(-c1cccnc1)c1cccn12 [Compound 13a, 7-Methoxy-4-(pyridin-3-yl)pyrrolo[1,2-a]quinoxaline] | slight improvement |  |  | 
c1ccc2c(c1)nc(-c1ccc(N3CCOCC3)cc1)c1cccn12 [Compound 9j, 4-(4-(Pyrrolo[1,2-a]quinoxalin-4-yl)phenyl)morpholine] | allow for D-loop inhibition |  |  | 
COc1ccc2c(c1)nc(-c1ccc(N)cc1)c1cccn12 [Compound 12c, 4-(7-Methoxypyrrolo[1,2-a]quinoxalin-4-yl)aniline] |  | only weakly influenced |  | 
COc1ccc2c(c1)nc(-c1ccc([N+](=O)[O-])cc1)c1cccn12 [Compound 12b, 7-Methoxy-4-(4-nitrophenyl)pyrrolo[1,2-a]quinoxaline] |  | stimulators | Stim | 
c1ccc2c(c1)nc(-c1ccncc1)c1cccn12 [Compound 11b, 4-(Pyridin-4-yl)pyrrolo[1,2-a]quinoxaline] | moderate |  |  | 
c1ccc2c(c1)nc(-c1ccc(N3CCCC3)cc1)c1cccn12 [Compound 9i, 4-(4-(Pyrrolidin-1-yl)phenyl)pyrrolo[1,2-a]quinoxaline] | significantly decreased | modest influence | Stim | 
